# Data published in patent publication US20240108645A1, “SENESCENCE AND SENESCENCE ASSOCIATED SECRETORY PHENOTYPE” (Metro Biotech NSW Pty Ltd, priority 2013, published 2024).
# Entries after “also recorded” stand apart in the source; their conditions may differ.
# What was measured:
# NAMPT = NAMPT (Homo sapiens, UniProt P43490); conditions: in vitro; Wang et al. (2014) Cell; cited from earlier work
# CD38 = target: T1, CD38 (Homo sapiens, UniProt P28907); conditions: in vitro; Esande et al. (2013) Diabetes; cited from earlier work
# T1 sequence (P28907 1-300): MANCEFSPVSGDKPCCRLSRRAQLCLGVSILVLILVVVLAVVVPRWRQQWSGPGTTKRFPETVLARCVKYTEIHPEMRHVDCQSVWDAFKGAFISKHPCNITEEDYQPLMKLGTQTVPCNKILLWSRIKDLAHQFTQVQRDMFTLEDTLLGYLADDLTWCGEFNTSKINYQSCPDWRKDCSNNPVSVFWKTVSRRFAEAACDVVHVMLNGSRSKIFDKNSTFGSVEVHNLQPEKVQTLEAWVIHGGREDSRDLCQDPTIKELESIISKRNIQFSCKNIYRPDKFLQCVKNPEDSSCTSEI
# [1] = Body weight after whole body γ-irradiation; assay type: in vivo, female C57BL6 mice; conditions: 500cGy whole body γ-irradiation; apigenin 500 mg/kg feed; 20 days post-irradiation
# Method: In order to assess the affects of an NAD^+ agonist on the effects of radiation, female C57BL6 (3-4 months old) were exposed to a single dose (500cGy) of whole body γ-irradiation or no irradiation (control). Mice were then maintained on chow diet with or without the addition of the NAD^+ raising compound apigenin to diet (500 mg/kg feed). The weight of the mice was determined at various time points for 20 days post-irradiation.
# [2] = Body weight after doxorubicin; assay type: in vivo, male C57BL6 mice; conditions: doxorubicin 10 mg/kg i.p. + apigenin 500 mg/kg of diet from 8 days before
# Method: Vehicle control: 10% DMSO in PBS administered intraperitoneally; • 2. Apigenin: administered in diet at 500 mg/kg of diet, in addition to vehicle control administered i.p.; • 3. […] Apigenin administered in diet of 500 mg/kg of diet, and doxorubicin administered at 10 mg/kg body weight i.p. Apigenin was administered 8 days prior to administration of a single dose of doxorubicin. Body weight was assessed during the course of the experiment as a read-out of general health and malaise, the results of which are shown in FIG. 11.
# [3] = tested on: senescence associated secretory proteins and cell cycle markers (mRNA); test: Quantitative RTPCR of senescence marker mRNA in epidymal adipose tissue; assay type: in vivo, C57BL6 mice; conditions: chow or high fat feed supplemented with 500 mg/kg apigenin
# Method: C57BL6 mice were fed chow, chow supplemented with 500 mg/kg apigenin, high fat feed or high fat feed supplemented with 500 mg/kg apigenin for 6 months. At 6 months, mRNA expression levels of senescence associated secretory proteins was determined in epidymal adipose tissue using quantitative RTPCR. At 12 months, mRNA expression levels of cell cycle markers was determined in epidymal adipose tissue using quantitative RTPCR.
# 3T3-L1 adipocytes [4] = test: Intracellular lipid content (oil red o) of 3T3-L1 adipocytes treated with antiretroviral agents; conditions: apigenin 25 μM; cells treated 24 hr with 30 μM AZT, Efavirenz, Lopinavir, Ritonavir
# Method: The ability of NAD^+ agonists to reduce or prevent lipodystrophy associated with anti-retroviral compounds was assessed. The ability of NMN to prevent or reduce lipodystrophy was tested by determining the lipid content of 3T3-L1 adipocytes treated with a vehicle, or the antiretroviral agent stavudine, either alone or in combination with NMN.
# 3T3-L1 adipocytes were treated for 24 hr with the HIV antiretroviral compound stavudine (10 nM) in the presence or absence of NMN (1 mM). Intracellular lipid content was assessed using oil red o staining, which was quantified by reading absorbance at 544 nm. Error bars: SD.
# In order to further test the ability of NAD^+ agonists to reduce lipodystrophy associated with antiretroviral agents, 3T3-L1 adipocytes were treated for 24 hr with various antiretroviral compounds (30 μM) in the presence or absence of NMN (1 mM) or apigenin (25 μM). Intracellular lipid content was assessed using oil red o staining, which was quantified by reading absorbance at 544 nm.
# C2C12 myoblasts [5] = test: SA-β-Gal staining of C2C12 myoblasts incubated with various agents; assay type: cell-based
# Method: The ability of NAD^+ agonists to reduce senescence associated with various agents was tested by inclubating C2C12 myoblasts with various agents in the presence or absence of NMN or apigenin, and the cells subsequent stained as mentioned above for SA-β-Gal activity. The following agents were tested: [table]
# [6] = tested on: senescence associated β-galactosidase; test: Senescence associated β-galactosidase staining of epididymal adipose tissue whole mounts; assay type: in vivo, C57BL6 mice
# Method: 18 month old C57BL6 mice were treated with or without […] intraperitoneal apigenin for 7 days. Epidydimal adipose tissue whole mounts were obtained from the mice and stained for expression of senescence associated β-galactosidase according to the chromogenic protocol of Debacq-Chainiaux F et al., Protocols to Detect Senescence-associated beta-galactosidase (SA-betagal) activity, a biomarker of senescent cells in culture and in vivo, Nature Protocols 2009; 4(12): 1798-1806. Cells that have undergone cellular senescence express β-galactosidase and stain blue (which can be seen as a darker grey in FIG. 1A).
# p16^INK4A = test: Doxorubicin-induced senescence in p16^LUC mice, bioluminescence/CT imaging; assay type: in vivo; conditions: doxorubicin 1 mg/kg i.p. + apigenin 500 mg/kg of food from 4 days before; vs doxorubicin alone
# Method: Vehicle control: 10% DMSO in PBS administered intraperitoneally; • 2. Apigenin: administered in diet at 500 mg/kg of food in addition to vehicle control administered i.p.; • 3. […] Apigenin administered in chow diet at 500 mg/kg of food, and doxorubicin administered at 1 mg/kg body weight i.p. Apigenin was administered 4 days prior to administration of doxorubicin. The animals were subjected to bioluminescence/CT imaging (Spectrum-CT instrument, PerkinElmer) as a readout for senescence 24 hours after treatment was completed. Areas of luminescence are shown as lightened areas in FIG. 5 and are indicated by an arrow.
# 3T3-L1 adipocytes [7] = test: SA-β-gal chromogenic staining of dexamethasone treated 3T3-L1 adipocytes; assay type: cell-based; conditions: 5 days; dexamethasone 1, 0.5, 0.1 or 0.01 mg/ml; 1 mM NMN, 25 mM apigenin
# Method: To further investigate the effects of NAD^+ agonists on dexamethasone induced senescence, 3T3-L1 adipocytes were treated for 5 days with ethanol (control), or 1 mg/ml, 0.5 mg/ml, 0.1 mg/ml or 0.01 mg/ml of dexamethasone in combination with either DMSA, 1 mM NMN, 25 mM apigenin, or 1 mM NMN and 25 mM apigenin and subjected to senescence associated beta-galactosidase staining according to the chromogenic protocol of Debacq-Chainiaux F et al Nature Protocols 2009.
# C2C12 myoblasts [8] = test: SA-β-Gal activity in C2C12 myoblasts by flow cytometry with C12FDG; assay type: cell-based
# Method: To determine the ability of NAD^+ agonists to prevent or reduce senescence associated with treatment with corticoids, C2C12 myoblasts were assayed for SA-β-Gal activity following contact with vehicle, NMN, apigenin, dexamethasone, dexamethasone and NMN, and dexamethasone and apigenin. SA-β-Gal activity was determined using the fluorogenic substrate, C12FDG, by flow cytometry (protocol of Debacq-Chainiaux et al. Nature Protocols 2009). FIG. 7A: […] FIGS. 7B and 7C: […] SA-β-Gal activity was decreased with NMN and/or apigenin. All data are presented as the mean value. * p<0.05, **** p<0.0001, using two-way ANOVA multiple comparisons test.
# Sequence of NAMPT (P43490 whole entry, species assumed): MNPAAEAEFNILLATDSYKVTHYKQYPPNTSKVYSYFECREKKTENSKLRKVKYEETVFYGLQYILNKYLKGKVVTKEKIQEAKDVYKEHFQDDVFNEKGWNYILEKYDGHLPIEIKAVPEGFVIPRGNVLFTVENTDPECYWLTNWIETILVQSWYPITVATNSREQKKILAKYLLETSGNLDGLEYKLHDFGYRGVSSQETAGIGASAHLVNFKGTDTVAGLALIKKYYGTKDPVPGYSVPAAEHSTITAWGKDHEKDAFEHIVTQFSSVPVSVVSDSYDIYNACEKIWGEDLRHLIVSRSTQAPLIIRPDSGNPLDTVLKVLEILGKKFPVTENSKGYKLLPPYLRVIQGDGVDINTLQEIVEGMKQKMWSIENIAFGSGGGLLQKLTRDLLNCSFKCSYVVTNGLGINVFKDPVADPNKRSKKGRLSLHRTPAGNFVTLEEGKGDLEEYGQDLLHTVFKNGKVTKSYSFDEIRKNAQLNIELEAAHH
smiles,measurement,setting,value
OC(CNc1ccccc1)Cn1c2ccc(Br)cc2c2cc(Br)ccc21 (stereo not drawn) [P7C3],activity of NAMPT,NAMPT,enhances activity of NAMPT in vitro
"O=c1cc(-c2ccc(O)cc2)oc2cc(O)cc(O)c12 [apigenin, 5,7-dihydroxy-2-(4-hydroxyphenyl)-4H-1-benzopyran-4-one]",inhibition of CD38 activity,CD38,inhibitors of CD38 activity in vitro
same,body weight after irradiation,[1],prevented this weight loss
same,body weight,[2],rescue in body weight to a degree similar to non-doxorubicin treated animals
same,mRNA expression of senescence associated secretory proteins (FIG. 2),[3]; 6 months,significant reduction in expression of senescence markers
same,mRNA expression of cell cycle markers (FIG. 3),[3]; 12 months,significant reduction in expression of senescence markers
same,"lipodystrophy (intracellular lipid content, oil red o)",3T3-L1 adipocytes [4],reduced lipodystrophy
same,"extent of senescence (proportion of cells stained blue, SA-β-Gal activity)",C2C12 myoblasts [5]; agents of the table of b212 with vs without apigenin or NMN,reduce the extent of senescence induced by the agents tested
same,extent to which the cells undergo senescence,"C2C12 myoblasts [5]; co-administration with AZT, 3TC, zalcitabine, efavirenze, lopinavir, ritonavir, nevirapine, tipranavir, tenofovir, invirase vs agent alone",reduces the extent to which the cells undergo senescence
same,extent to which the cells undergo senescence,C2C12 myoblasts [5]; co-administration with PPARγ agonist rosiglitazone vs rosiglitazone alone,reduces the extent to which the cells undergo senescence
same,extent to which the cells undergo senescence,C2C12 myoblasts [5]; co-administration with antiprotozoal agent quinacrine vs quinacrine alone,reduces the extent to which the cells undergo senescence
same,extent to which the cells undergo senescence,C2C12 myoblasts [5]; co-administration with each of the chemotherapeutic agents listed in b109 vs agent alone,reduces the extent to which the cells undergo senescence
same,extent to which the cells undergo senescence,C2C12 myoblasts [5]; co-administration with xanthine oxidase inhibitor allopurinol vs allopurinol alone,reduces the extent to which the cells undergo senescence
same,extent to which the cells undergo senescence,C2C12 myoblasts [5]; co-administration with zolendronate vs zolendronate alone,reduces the extent to which the cells undergo senescence
same,SA-β-gal staining of adipose tissue (FIG. 1B),[6]; 3 and 18 month old mice fed chow or chow supplemented with apigenin,little or no staining
same,senescence associated β-galactosidase staining of adipose tissue (FIG. 1A),"[6]; 18 month old mice, 100 mg/day intraperitoneal apigenin for 7 days / chow supplemented daily with 100 mg/kg apigenin, vs chow fed control, 100 mg/kg",less compared to chow fed mice; also recorded: significantly less senescence-associated β-galactosidase expression
same,p16^INK4A induction (bioluminescence),p16^INK4A,little or no signs of p16^INK4A induction
same,"SA-β-gal staining (blue cells), dexamethasone induced senescence",3T3-L1 adipocytes [7],reduce or prevent senescence induced by dexamethasone
same,SA-β-Gal activity (FIG. 7B),"C2C12 myoblasts [8]; 72 hours, dexamethasone sodium phosphate 250 nM or PBS, NMN 1 mM or apigenin 25 uM",decreased
same,SA-β-Gal activity (FIG. 7C),"C2C12 myoblasts [8]; 96 hours, dexamethasone sodium phosphate 250 nM or PBS, NMN 1 mM or apigenin 25 uM",decreased
same,percentage of cells which exhibited SA-β-Gal activity following treatment with dexamethasone,C2C12 myoblasts [8]; summary of FIGS. 7A-7C,reduced the percentage of cells which exhibited SA-β-Gal activity
